Laboratory results reported in patent US10793543B2, “Selective C-KIT kinase inhibitor” (PRECEDO PHARMACEUTICALS CO., LTD, priority 2016, dated 2020).

Assays:
[1] = system: MEG-01 cells (P210 Bcr-Abl); assay: Cancer cell proliferation, CCK-8, MEG-01; format: cell-based; details: Homo sapiens; MEG-01, P210 Bcr-Abl, 72 hours, CCK-8; read-out: GI50
From the text: (§1) In the present example, the following cells were used: chronic myelogenous leukemia cells K562 (expressing P210 Bcr-Abl mutant gene), human megakaryocytic leukemia cells MEG-01 (expressing P210 Bcr-Abl mutant gene), human peripheral blood basophilic leukemia cells Ku812 (expressing Bcr-Abl mutant gene) (all above cells purchased from ATCC, USA), human gastrointestinal stromal tumor cell lines GIST-T1 cells (expressing wild-type C-KIT gene) (purchased from Cosmo Bio Co., Ltd., Japan), human gastrointestinal stromal tumor cell lines GIST-882 cells (expressing wild-type C-KIT gene) (presented by the Professor Gray Lab, Dana-Farber Cancer Institute, Harvard University, USA), mouse pro-B cells BaF3 (purchased from ATCC, USA).
(§2) The cells were incubated for 72 hours, and then the number of viable cells was quantified with a microplate reader by using CCK-8 Cell Viability Assay Kit (purchased from Bestbio Company, Shanghai, China) (CCK-8 can be reduced by dehydrogenase in living cells to a highly water-soluble yellow formazan product, and the amount of formazan produced is proportional to the number of living cells).

[2] = system: Ku812 cells (Bcr-Abl); assay: Cancer cell proliferation, CCK-8, Ku812; format: cell-based; details: Homo sapiens; Ku812, Bcr-Abl, 72 hours, CCK-8; read-out: GI50
From the text: as §1, §2

[3] = system: P210/BaF3 cells (P210 Bcr-Abl); assay: Cell proliferation, CCK-8, P210/BaF3; format: cell-based; details: Mus musculus; P210/BaF3, Bcr-Abl, 72 hours, CCK-8; read-out: GI50
From the text: In addition, in the present example, further uses: mouse P210/BaF3 (stably expressing P210 Bcr-Abl mutant gene), mouse Tel-ABL-BaF3 (stably expressing wild-type ABL kinase), mouse Tel-cKit-BaF3 (stably expressing C-KITwild-type kinase), mouse Tel-cKit/V559D-BaF3 (stably expressing C-KIT V559D mutant kinase), mouse Tel-cKit/V559D/V654A-BaF3 (stably expressing C-KIT V559D/V654A mutant kinase), mouse Tel-cKit/N822K-BaF3 (stably expressing C-KIT N822K mutant kinase), mouse Tel-cKit/V654A-BaF3 (stably expressing C-KIT V654A mutant kinase), mouse Tel-cKit/L567P-BaF3 (stably expressing C-KIT L567P mutant kinase), mouse Tel-cKit/T670I-BaF3 (stably expressing C-KIT T670I mutant kinase), mouse Tel-PDGFRα-BaF3 (stably expressing PDGFRα kinase), mouse Tel-PDGFRβ-BaF3 (stably expressing PDGFRβ kinase), mouse Tel-VEGFR2-BaF3 (stably expressing VEGFR2 kinase), mouse Tel-RET-BaF3 (stably expressing RET kinase). […]
as §2

[4] = system: Tel-cKit-BaF3 cells (KIT WT); assay: Cell proliferation, CCK-8, Tel-cKit-BaF3; format: cell-based; details: Mus musculus, 72 hours
From the text: (§3) In addition, in the present example, further uses: mouse P210/BaF3 (stably expressing P210 Bcr-Abl mutant gene), mouse Tel-ABL-BaF3 (stably expressing wild-type ABL kinase), mouse Tel-cKit-BaF3 (stably expressing C-KITwild-type kinase), mouse Tel-cKit/V559D-BaF3 (stably expressing C-KIT V559D mutant kinase), mouse Tel-cKit/V559D/V654A-BaF3 (stably expressing C-KIT V559D/V654A mutant kinase), mouse Tel-cKit/N822K-BaF3 (stably expressing C-KIT N822K mutant kinase), mouse Tel-cKit/V654A-BaF3 (stably expressing C-KIT V654A mutant kinase), mouse Tel-cKit/L567P-BaF3 (stably expressing C-KIT L567P mutant kinase), mouse Tel-cKit/T670I-BaF3 (stably expressing C-KIT T670I mutant kinase), mouse Tel-PDGFRα-BaF3 (stably expressing PDGFRα kinase), mouse Tel-PDGFRβ-BaF3 (stably expressing PDGFRβ kinase), mouse Tel-VEGFR2-BaF3 (stably expressing VEGFR2 kinase), mouse Tel-RET-BaF3 (stably expressing RET kinase). The above cell lines were all constructed by our laboratory according to the following method: the kinase region sequences of human P210 Bcr-Abl, ABL, C-KIT, C-KIT V559D, C-KIT V559D/V654A, C-KIT N822K, C-KIT V654A, C-KIT L567P, C-KIT T670I, PDGFRα, PDGFRβ, VEGFR2, RET were amplified respectively by PCR, inserted respectively into MSCV-Puro vectors harboring N-terminal TEL fragment and/or NPM fragment and/or TPR fragment (Clontech), then the vectors were stably transfected into mouse BaF3 cells by retrovirus methods and growth factor IL-3 was removed, eventually obtaining cell lines that are transferred protein (P210 Bcr-Abl, ABL, C-KIT, C-KIT V559D, C-KIT V559D/V654A, C-KIT N822K, C-KIT V654A, C-KIT L567P, C-KIT T670I, PDGFRα, PDGFRβ, VEGFR2, RET)-dependent.
as §2

[5] = system: Tel-cKit/V559D/V654A-BaF3 cells (KIT V559D/V654A); assay: Cell proliferation, CCK-8, Tel-cKit/V559D/V654A-BaF3; format: cell-based; details: Mus musculus, 72 hours
From the text: as §3, §2

[6] = system: Tel-cKit/N822K-BaF3 cells (KIT N822K); assay: Cell proliferation, CCK-8, Tel-cKit/N822K-BaF3; format: cell-based; details: Mus musculus, 72 hours
From the text: as §3, §2

[7] = system: Tel-cKit/V654A-BaF3 cells (KIT V654A); assay: Cell proliferation, CCK-8, Tel-cKit/V654A-BaF3; format: cell-based; details: Mus musculus, 72 hours
From the text: as §3, §2

[8] = system: Tel-PDGFRα-BaF3 cells (PDGFRα); assay: Cell proliferation, CCK-8, Tel-PDGFRα-BaF3; format: cell-based; details: Mus musculus, 72 hours
From the text: as §3, §2

[9] = system: Tel-PDGFRβ-BaF3 cells (PDGFRβ); assay: Cell proliferation, CCK-8, Tel-PDGFRβ-BaF3; format: cell-based; details: Mus musculus, 72 hours
From the text: as §3, §2

[10] = system: cells expressing wild-type C-KIT kinase; assay: Cell proliferation, C-KIT cells; format: cell-based; details: cells expressing wild-type C-KIT kinase, summary of Table 2
From the text: as §1, §3, §2

[11] = system: phosphorylation of C-KIT and pathway proteins in GIST-882 cells; assay: Effects on cell signaling pathways (phosphorylation), GIST-882; format: cell-based, human; details: GIST-882, 0.1 μM, 2 hours
[12] = system: GIST-882 cells; assay: Apoptosis, PARP and Caspase 3 cleavage by Western Blot, GIST-882; format: cell-based, human; details: GIST-882, 0.3 μM, 72 hours
From the text: The effects of different concentrations of drugs on protein cleavage of DNA repairase poly(ADP-ribose) polymerase (PARP) and Caspase (cysteinyl aspartate-specific proteinase) 3 at different periods of time were examined by Western Blot.

[13] = system: gastrointestinal stromal tumor cell lines GIST-T1; assay: Mouse tumor model of GIST-T1 cells; format: in vivo; details: for tumor inhibition rate: Day 28 after administration
Description: (§4) 1. 4-6 week-old Bal b/c female mice were purchased from Shanghai SLAC Experimental Animal Co., Ltd., and were raised in a SPF-level laboratory. Drinking water and padding were both subjected to aseptic processing via high-pressure disinfection, and all operations of the mice were conducted under aseptic conditions;
(§5) 2. About 5×10^6 gastrointestinal stromal tumor cell lines GIST-T1 or GIST-882 (purchased from ATCC) were respectively injected subcutaneously at left side back of all mice at Day 0;
(§6) 5. Mice were sacrificed on Day 36 (for GIST-882 mouse model) or Day 43 (GIST-T1 mouse model) and subcutaneous tumors were taken out and weighed for comparison;
(§7) 6. Tumor tissue specimens were prepared into protein lysate samples for further usage;
(§8) 7. Growth trend of subcutaneous tumors from Day 16 to Day 43 was derived, and tumor volume was calculated as length×width×width/2 mm^3.

[14] = system: gastrointestinal stromal tumor cell lines GIST-882; assay: Mouse tumor model of GIST-882 cells; format: in vivo; details: GIST-882 model; for tumor inhibition rate: Day 21 after administration
Description: as §4, §5, §6, §7, §8

Molecule Cc1ccc(NC(=O)c2cccc(C(F)(F)F)c2)cc1OC1CCN(C(=O)c2ccncc2)CC1 [Compound 4] has a GI50 [1] of 7.43 µM, a GI50 [2] of 6.71 µM and a GI50 [3] of 6.05 µM. The GI50 [4] was 0.19 µM, the GI50 [5] was 1.05 µM and the GI50 [6] was 0.94 µM. The GI50 [7] was 1.03 µM, the GI50 [8] was 0.038 µM and the GI50 [9] was 0.027 µM. The GI50 [10] was less than 0.5 µM, the “phosphorylation of C-KIT oncogenic protein” value [11] was “significantly inhibiting” and the “phosphorylation of proteins such as Stat5, AKT, ErK, S6K, S6, PDGFRα” value [11] was “significant inhibitory effects”. The “cleavage of PARP and Caspase 3” value [12] was “significant cleavage”, the “inhibitory effect on mouse tumors” value ([13]; 25 mg/kg oral daily, Day 4 after administration) was “certain inhibitory effect” and the tumor inhibition rate ([13]; 50 mg/kg oral daily) was 65.3%. The tumor inhibition rate ([13]; 100 mg/kg oral daily) was 73.8%, the “effect on body weight of mice” value ([13]; oral daily dosing) was “no effect on the body weight of mice” and the tumor inhibition rate ([14]; 50 mg/kg oral daily) was 44%. For the same molecule, the tumor inhibition rate ([14]; 100 mg/kg oral daily) was 58% and the “effect on body weight of mice” value ([14]; oral daily dosing) was “no effect on the body weight of mice”.
